Measured values reported in ChEMBL document CHEMBL1159293, “Additional bioactive acetogenins, annomutacin and (2,4-trans and cis)-10R-annonacin-A-ones, from the leaves of Annona muricata” (J Nat Prod, 1995).
Converted amounts (≈) assume the structure as drawn.

Columns and labels:
[1] = (§1) Toxicity to brine shrimp; format: organism-based; settings: artemia, in vivo
HT-29 = test: Cytotoxicity against human HT-29 cells after 7 days by MTT assay; format: functional; settings: HT-29, 168 h, read-out: ED50 (the source's name)
MCF7 = test: Cytotoxicity against human MCF7 cells after 7 days by MTT assay; format: functional; settings: MCF7, 168 h, read-out: ED50 (the source's name)
A549 = test: Cytotoxicity against human A549 cells after 7 days by MTT assay; format: functional; settings: A549, 168 h, read-out: ED50 (the source's name)
Artemia = test: as §1; format: organism-based; settings: in vivo

Row | Structure (SMILES) | LC50 [1] [µg/mL] | EC50 (HT-29) [µg/mL] | EC50 (MCF7) [µg/mL] | EC50 (A549) [µg/mL] | LC50 (Artemia) [×10⁻² ug/ml]
1 | CCCCCCCCCCCC[C@H](O)[C@H]1CC[C@H]([C@H](O)CCCC[C@H](O)CCCCC[C@@H]2C[C@@H](CC(C)=O)C(=O)O2)O1 | 0.112 (≈ 0.188 µM) | > 1 | 0.57 (≈ 0.955 µM) | 0.174 (≈ 0.292 µM) | –
2 | CCCCCCCCCCCC[C@H](O)[C@H]1CC[C@H]([C@H](O)CCCC[C@H](O)CCCCC[C@@H]2C[C@H](CC(C)=O)C(=O)O2)O1 | 0.112 (≈ 0.188 µM) | > 1 | 0.57 (≈ 0.955 µM) | 0.174 (≈ 0.292 µM) | –
3 | CCCCCCCCCCCC[C@H](O)[C@@H]1CC[C@@H]([C@@H](O)CCCCCCC(O)CCCCC[C@@H](O)CC2=C[C@H](C)OC2=O)O1 (stereo partly drawn) [ANNOMONTACIN] | – | > 1 | > 1 | 0.0157 (≈ 0.0251 µM) | 3.91
4 | COc1cccc2c1C(=O)c1c(O)c3c(c(O)c1C2=O)C[C@@](O)(C(=O)CO)C[C@@H]3O[C@H]1C[C@H](N)[C@H](O)[C@H](C)O1 [DOXORUBICIN] | 0.313 (≈ 0.576 µM) | – | – | – | –
